# Tested on: quinone reductase (QR), mutant Hepa 1c1c7 cells (TAOBP^r cl and BP^r cl)
# Test: QR induction in mutant Hepa 1c1c7 cell lines (mono-/bifunctional inducer)
# Format: cell-based, murine
# Conditions: wild-type vs mutant cells
# Experimental: Determination of Quinone Reductase Activity in Cell Cultures. To determine the potency of inducers, Hepa 1c1c7 murine hepatoma cells as described in the Gerhauser publication were placed in 96-well plates at a density of 1×10^4 cells/ml in 200 μl of medium. After a preincubation period of 24 hr, the media were decanted and 190 μl fresh media were added to each well. Ten (10) μl test agents dissolved in 10% DMSO (final concentration of DMSO is 0.5%) with a serial 2-fold dilutions were introduced to each well, and the plates were incubated for an additional 48 hours. Specific QR activity was determined by measuring the NADPH-dependent menadiol-mediated reduction of 3-(4, 5-dimethylthiazo-2-yl)-2,5-diphenyltetrazolium bromide to blue formazan formed per mg protein per minute. Protein was determined in an identical set of test plates by staining with crystal violet. […] Induction of QR activity was calculated by comparing the QR specific activity of agent-treated cells with that of solvent-treated cells, and a plot of ratio was generated. […]
# Induction of Quinone Reductase in Hepa 1c1c7 Cells. […] Induction of QR activity was calculated by comparing the QR specific activity of agent-treated cells with the QR specific activity of solvent-treated cells, and a plot of ratios was generated. […]
smiles,measurement,value
O=c1cc(-c2ccc(Br)cc2)oc2ccccc12 [4'-Bromoflavone],inducer type (mono-/bifunctional),bifunctional inducer

# From patent US6046231A, “Use of 4'-bromoflavone in a cancer chemopreventative composition and method” (The Board of Trustees of the University of Illinois, priority 1999, dated 2000)
